Experimental data reported in ChEMBL document CHEMBL4665705 (J Med Chem, 2020).
Converted amounts (≈) assume the structure as drawn.

Columns and labels:
[1] = Fraction unbound in human blood measured after 4 hrs by LC-MS/MS analysis; assay type: ADME, tissue-based
[2] = Solubility of the compound in pH 6.5 FaSSIF at 125 ug/ml measured after 16 hrs by HPLC analysis; assay type: physicochemical; settings: dose 125 µg/ml
[3] = biological target: Bromodomain testis-specific protein (Homo sapiens, UniProt Q58F21, Y66A); assay: Displacement of Alexa Fluor 647 labelled ligand from 6His-Thr tagged BRDT BD2/BD1 Y66A mutant (1 to 397 residues) (unknown origin) measured after 30 mins by TR-FRET assay
Cytochrome P450 3A4 = Cytochrome P450 3A4 (Homo sapiens, UniProt P08684); assay: Metabolism-dependent inhibition of CYP3A4 (unknown origin); assay type: ADME
Sequence of Cytochrome P450 3A4 (P08684 whole entry, the tested form may be a part): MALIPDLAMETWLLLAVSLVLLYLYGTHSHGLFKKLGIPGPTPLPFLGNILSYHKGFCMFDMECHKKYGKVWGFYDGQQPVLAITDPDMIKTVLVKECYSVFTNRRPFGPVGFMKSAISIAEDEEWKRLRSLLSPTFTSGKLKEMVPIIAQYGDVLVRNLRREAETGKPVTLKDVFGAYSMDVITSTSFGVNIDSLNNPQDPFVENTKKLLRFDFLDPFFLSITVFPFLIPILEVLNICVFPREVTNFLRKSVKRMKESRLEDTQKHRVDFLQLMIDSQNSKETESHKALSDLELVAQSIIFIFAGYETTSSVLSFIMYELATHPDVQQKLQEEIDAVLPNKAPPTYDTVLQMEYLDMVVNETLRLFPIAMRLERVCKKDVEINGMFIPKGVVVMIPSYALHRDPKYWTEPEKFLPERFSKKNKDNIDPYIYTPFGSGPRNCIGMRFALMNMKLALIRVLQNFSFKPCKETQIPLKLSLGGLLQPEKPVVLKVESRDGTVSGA

[4] = Volume of distribution at steady state in Wistar Han rat at 1 mg/kg, iv administered as 1 hr infusion or 3 mg/kg, po administered via gavage by LC-MS/MS analysis; assay type: ADME, organism-based; settings: in vivo, read-out: Vdss
[5] = Half life in Wistar Han rat at 1 mg/kg, iv administered as 1 hr infusion or 3 mg/kg, po administered via gavage by LC-MS/MS analysis; assay type: ADME, organism-based; settings: in vivo
[6] = Volume of distribution at steady state in Beagle dog at 0.5 mg/kg, iv administered as 1 hr infusion on day 1 and day 7 to achieve a target dose of 1 mg/kg by LC-MS/MS analysis; assay type: ADME, organism-based, Canis lupus familiaris; settings: in vivo, dose 0.5-1 mg/kg, time 7 day, read-out: Vdss
[7] = Intrinsic clearance in Beagle dog hepatocytes assessed per g tissue at 0.5 uM measured up to 120 mins by LC-MS/MS analysis; assay type: ADME, cell-based, Canis lupus familiaris, Hepatocyte; settings: 2 h
[8] = biological target: Bromodomain-containing protein 2 (Homo sapiens, UniProt P25440, Y113A); assay: Displacement of Alexa Fluor 647 labelled ligand from 6His-Thr tagged BRD2 BD2/BD1 Y113A mutant (1 to 473 residues) (unknown origin) measured after 30 mins by TR-FRET assay
Sequence of Bromodomain-containing protein 2 (Homo sapiens, UniProt P25440, Y113A) (P25440 whole entry Y113A, the tested form may be a part): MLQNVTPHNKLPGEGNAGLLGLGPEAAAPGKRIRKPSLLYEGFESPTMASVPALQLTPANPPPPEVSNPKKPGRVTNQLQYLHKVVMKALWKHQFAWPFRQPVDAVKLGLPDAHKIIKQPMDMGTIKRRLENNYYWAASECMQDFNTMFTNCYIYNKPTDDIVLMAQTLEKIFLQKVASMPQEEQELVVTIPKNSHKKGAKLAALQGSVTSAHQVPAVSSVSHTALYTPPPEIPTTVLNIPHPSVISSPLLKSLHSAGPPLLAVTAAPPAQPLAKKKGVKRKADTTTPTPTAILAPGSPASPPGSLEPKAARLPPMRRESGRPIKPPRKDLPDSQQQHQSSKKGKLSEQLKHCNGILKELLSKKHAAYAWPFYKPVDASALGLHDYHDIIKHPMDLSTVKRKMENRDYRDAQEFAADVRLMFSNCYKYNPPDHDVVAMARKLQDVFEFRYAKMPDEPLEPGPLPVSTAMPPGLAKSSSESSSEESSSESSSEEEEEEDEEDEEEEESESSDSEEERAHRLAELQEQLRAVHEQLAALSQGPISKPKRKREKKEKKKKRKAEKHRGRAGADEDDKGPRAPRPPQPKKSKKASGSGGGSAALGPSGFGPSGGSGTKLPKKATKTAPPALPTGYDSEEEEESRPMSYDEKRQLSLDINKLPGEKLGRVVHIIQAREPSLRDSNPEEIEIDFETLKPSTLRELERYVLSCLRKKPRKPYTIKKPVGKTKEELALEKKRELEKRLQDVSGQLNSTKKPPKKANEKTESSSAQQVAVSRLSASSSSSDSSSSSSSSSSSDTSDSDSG

[9] = biological target: Bromodomain-containing protein 3 (Homo sapiens, UniProt Q15059, Y73A); assay: Displacement of Alexa Fluor 647 labelled ligand from 6His-Thr tagged BRD3 BD2/BD1 Y73A mutant (1 to 435 residues) (unknown origin) measured after 30 mins by TR-FRET assay
Sequence of Bromodomain-containing protein 3 (Homo sapiens, UniProt Q15059, Y73A) (Q15059 2-726 Y73A limits assumed): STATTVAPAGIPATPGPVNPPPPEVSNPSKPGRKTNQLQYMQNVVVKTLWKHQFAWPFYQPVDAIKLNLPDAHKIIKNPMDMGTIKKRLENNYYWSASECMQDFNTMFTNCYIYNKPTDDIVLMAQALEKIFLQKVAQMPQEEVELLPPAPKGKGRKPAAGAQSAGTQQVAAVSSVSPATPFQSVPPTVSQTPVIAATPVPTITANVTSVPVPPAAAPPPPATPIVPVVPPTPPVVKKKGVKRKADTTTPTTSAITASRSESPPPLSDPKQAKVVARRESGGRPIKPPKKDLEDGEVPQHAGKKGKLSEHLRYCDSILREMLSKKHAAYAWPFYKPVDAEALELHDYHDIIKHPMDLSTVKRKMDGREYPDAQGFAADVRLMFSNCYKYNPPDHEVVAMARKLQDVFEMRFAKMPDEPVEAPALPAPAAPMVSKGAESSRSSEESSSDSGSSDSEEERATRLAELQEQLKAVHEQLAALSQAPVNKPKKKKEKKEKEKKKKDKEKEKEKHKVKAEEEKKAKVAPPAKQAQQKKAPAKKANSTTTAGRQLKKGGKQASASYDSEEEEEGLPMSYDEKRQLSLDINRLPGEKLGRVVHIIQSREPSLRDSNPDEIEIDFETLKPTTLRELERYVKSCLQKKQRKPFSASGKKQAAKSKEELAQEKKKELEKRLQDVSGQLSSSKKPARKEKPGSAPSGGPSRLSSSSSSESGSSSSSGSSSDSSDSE

[10] = Fraction unbound in Wistar Han rat blood measured after 4 hrs by LC-MS/MS analysis; assay type: ADME, tissue-based
[11] = Oral bioavailability in Wistar Han rat at 3 mg/kg by LC-MS/MS analysis; assay type: ADME, organism-based; settings: in vivo
[12] = Intrinsic clearance in Wistar Han rat hepatocytes assessed per g tissue at 0.5 uM measured up to 60 mins by LC-MS/MS analysis; assay type: ADME, cell-based, Hepatocyte; settings: 1 h, time <=45 min
[13] = Clearance in Wistar Han rat at 1 mg/kg, iv administered as 1 hr infusion or 3 mg/kg, po administered via gavage by LC-MS/MS analysis relative to liver blood flow; assay type: ADME, organism-based; settings: in vivo
[14] = buffer, pH 7.4
physchem = settings: phosphate buffered saline, pH 7.4
[15] = Clearance in Beagle dog at 0.5 mg/kg, iv administered as 1 hr infusion on day 1 and day 7 to achieve a target dose of 1 mg/kg by LC-MS/MS analysis relative to liver blood flow; assay type: ADME, organism-based, Canis lupus familiaris; settings: in vivo, 168 h, dose 0.5-1 mg/kg, time 7 day
Albumin = Albumin (Homo sapiens, UniProt P02768); assay: Binding affinity to HSA relative to control; assay type: ADME; settings: isolated protein
Sequence of Albumin (P02768 whole entry, the tested form may be a part): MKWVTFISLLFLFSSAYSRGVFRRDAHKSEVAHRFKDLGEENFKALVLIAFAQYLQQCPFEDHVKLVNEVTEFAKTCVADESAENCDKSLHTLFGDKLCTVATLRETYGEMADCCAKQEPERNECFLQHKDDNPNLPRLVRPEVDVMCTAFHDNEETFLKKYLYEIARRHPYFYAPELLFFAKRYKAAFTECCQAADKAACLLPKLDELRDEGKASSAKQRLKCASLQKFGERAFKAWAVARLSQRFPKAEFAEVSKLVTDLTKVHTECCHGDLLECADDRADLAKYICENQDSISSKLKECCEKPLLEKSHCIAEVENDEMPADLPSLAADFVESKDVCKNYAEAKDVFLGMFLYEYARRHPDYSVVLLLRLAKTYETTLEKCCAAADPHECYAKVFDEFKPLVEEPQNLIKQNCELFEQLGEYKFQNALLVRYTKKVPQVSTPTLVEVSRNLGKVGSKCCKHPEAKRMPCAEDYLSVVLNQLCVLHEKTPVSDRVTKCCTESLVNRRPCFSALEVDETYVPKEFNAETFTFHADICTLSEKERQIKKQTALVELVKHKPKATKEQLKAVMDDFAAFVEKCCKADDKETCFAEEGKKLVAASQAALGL

[16] = biological target: Bromodomain-containing protein 3 (Homo sapiens, UniProt Q15059, Y348A); assay: Displacement of Alexa Fluor 647 labelled ligand from 6His-Thr tagged BRD3 BD1/BD2 Y348A mutant (1 to 435 residues) (unknown origin) measured after 30 mins by TR-FRET assay
Sequence of Bromodomain-containing protein 3 (Homo sapiens, UniProt Q15059, Y348A) (Q15059 2-726 Y348A limits assumed): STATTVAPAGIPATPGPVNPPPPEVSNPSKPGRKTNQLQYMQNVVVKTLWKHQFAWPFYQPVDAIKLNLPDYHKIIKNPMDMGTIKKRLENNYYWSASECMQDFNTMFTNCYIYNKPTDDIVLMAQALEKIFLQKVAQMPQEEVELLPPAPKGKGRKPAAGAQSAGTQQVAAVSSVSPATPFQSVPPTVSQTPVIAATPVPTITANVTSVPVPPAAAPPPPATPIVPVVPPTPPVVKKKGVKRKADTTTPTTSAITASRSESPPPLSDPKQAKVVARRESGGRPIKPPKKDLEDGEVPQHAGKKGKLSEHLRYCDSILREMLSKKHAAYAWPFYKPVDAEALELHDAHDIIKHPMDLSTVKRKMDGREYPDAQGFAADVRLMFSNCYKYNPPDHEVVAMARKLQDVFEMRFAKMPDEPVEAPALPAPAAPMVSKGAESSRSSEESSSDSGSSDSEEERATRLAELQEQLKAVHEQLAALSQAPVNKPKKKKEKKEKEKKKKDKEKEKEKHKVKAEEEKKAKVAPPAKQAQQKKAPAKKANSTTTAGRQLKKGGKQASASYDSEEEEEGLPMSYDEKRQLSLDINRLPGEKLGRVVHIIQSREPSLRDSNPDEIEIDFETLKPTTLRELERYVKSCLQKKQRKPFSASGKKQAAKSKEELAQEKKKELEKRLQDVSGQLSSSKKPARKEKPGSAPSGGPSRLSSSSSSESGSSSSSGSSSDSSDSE

[17] = Oral bioavailability in Beagle dog; assay type: ADME, organism-based, Canis lupus familiaris; settings: in vivo
[18] = Intrinsic clearance in human hepatocytes assessed per g tissue at 0.5 uM measured up to 60 mins by LC-MS/MS analysis; assay type: ADME, cell-based, Hepatocyte; settings: 1 h, time <=45 min
Blood = assay: Inhibition of LPS-induced MCP1 production in human whole blood preincubated for 30 mins followed by LPS addition measured after 24 hrs by immunoassay; assay type: functional, tissue-based
[19] = biological target: Bromodomain-containing protein 2 (Homo sapiens, UniProt P25440, Y386A)
Sequence of Bromodomain-containing protein 2 (Homo sapiens, UniProt P25440, Y386A) (P25440 whole entry Y386A, the tested form may be a part): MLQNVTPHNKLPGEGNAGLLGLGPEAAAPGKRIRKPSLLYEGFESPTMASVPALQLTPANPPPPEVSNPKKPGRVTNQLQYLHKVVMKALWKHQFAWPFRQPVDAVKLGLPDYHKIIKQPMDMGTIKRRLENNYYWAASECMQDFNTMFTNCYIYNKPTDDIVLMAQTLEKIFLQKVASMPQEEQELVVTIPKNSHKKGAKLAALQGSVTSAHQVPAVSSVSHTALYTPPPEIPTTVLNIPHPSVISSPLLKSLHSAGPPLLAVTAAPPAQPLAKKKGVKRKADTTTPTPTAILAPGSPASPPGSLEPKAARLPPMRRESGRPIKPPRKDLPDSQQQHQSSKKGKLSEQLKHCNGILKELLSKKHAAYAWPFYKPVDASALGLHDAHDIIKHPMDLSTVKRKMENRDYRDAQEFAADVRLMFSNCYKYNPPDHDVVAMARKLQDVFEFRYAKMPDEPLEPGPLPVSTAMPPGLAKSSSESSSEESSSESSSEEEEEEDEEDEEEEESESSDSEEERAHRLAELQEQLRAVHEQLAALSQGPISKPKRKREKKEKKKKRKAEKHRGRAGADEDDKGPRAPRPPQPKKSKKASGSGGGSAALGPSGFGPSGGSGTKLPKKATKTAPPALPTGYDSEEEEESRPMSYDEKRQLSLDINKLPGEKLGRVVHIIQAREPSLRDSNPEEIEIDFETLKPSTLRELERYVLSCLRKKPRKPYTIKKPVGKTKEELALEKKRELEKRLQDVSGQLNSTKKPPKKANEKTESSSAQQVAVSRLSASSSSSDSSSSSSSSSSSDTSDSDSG

[20] = Half life in Beagle dog at 0.5 mg/kg, iv administered as 1 hr infusion on day 1 and day 7 to achieve a target dose of 1 mg/kg by LC-MS/MS analysis; assay type: ADME, organism-based, Canis lupus familiaris; settings: in vivo, dose 0.5-1 mg/kg, time 7 day
in vitro = settings: PAMPA, pH 7.4
[21] = Fraction unbound in Beagle dog blood measured after 4 hrs by LC-MS/MS analysis; assay type: ADME, tissue-based, Canis lupus familiaris
[22] = Clearance in Wistar Han rat at 1 mg/kg, iv administered as 1 hr infusion or 3 mg/kg, po administered via gavage by LC-MS/MS analysis; assay type: ADME, organism-based; settings: in vivo
[23] = Clearance in Beagle dog at 0.5 mg/kg, iv administered as 1 hr infusion on day 1 and day 7 to achieve a target dose of 1 mg/kg by LC-MS/MS analysis; assay type: ADME, organism-based, Canis lupus familiaris; settings: in vivo, dose 0.5-1 mg/kg, time 7 day

CC(=O)Nc1c(F)cc(C(=O)N[C@H]2CC[C@H](O)CC2)cc1O[C@@H](C)c1ccccc1 [GSK046]
fraction unbound at 4 h [1]: 0.32
solubility at 16 h [2]: 996 µg/mL (≈ 2400 µM)
IC50 [3]: 200 nM
IC50 (Cytochrome P450 3A4): > 39800 nM
Vd [4]: 0.91 L/kg
half-life [5]: 30 min
Vd [6]: 0.91 L/kg
CLH [7]: < 1.26 mL/min
IC50 [8]: 251 nM
IC50 [9]: 100 nM
fraction unbound at 4 h [10]: 0.44
bioavailability [11]: 31%
CLH [12]: < 0.8 mL/min
CL [13]: 46%
CHI [14]: 2.8
solubility kinetic (physchem): 91 µg/mL (≈ 220 µM)
CL [15]: 36%
Activity (Albumin): 47%
IC50 [16]: 39800 nM
bioavailability [17]: 66%
CLH [18]: < 0.45 mL/min
IC50 (Blood): 31.6 nM
IC50 [19]: 10000 nM
half-life [20]: 42 min
Papp (in vitro): 1.6 ×10⁻⁶ cm/s
fraction unbound at 4 h [21]: 0.33
clearance [22]: 36 mL/min/kg
clearance [23]: 20 mL/min/kg
